The structures appear in SMILES notation. Converted amounts (≈) assume the structure as drawn.

One test concerns CCRF-CEM. The test is described as follows: Concentration required to inhibit growth of CCRF-CEM cells in culture for 72 hr to 50% of control growth. The format is functional, cell-based. Particulars: Homo sapiens.
Test [1] can be described thus: Antitumor activity in vivo against the 6C3HED lymphosarcoma, dosed for 8 days at 300 mg/kg. The conditions noted are these: Mus musculus, 192 h.

In the test on CCRF-CEM, `CC(C)c1ccc(S(=O)(=O)NC(=O)Nc2ccc(Cl)cc2)cc1` showed a half-inhibitory concentration (IC50) of 8.7 µg/mL (≈ 24.7 µM). Moreover, the inhibition in vivo at 300 mg/kg in test [1] came to 65%.
In the case of `O=C(Nc1ccc(Cl)cc1)NS(=O)(=O)c1cccc2ccccc12`, in the test with CCRF-CEM, half-maximal inhibition (IC50) required 15.2 µg/mL (≈ 42.1 µM). In test [1], this compound came in with an inhibition in vivo at 300 mg/kg of 29%.
In the same order, the values of `COc1cccc(S(=O)(=O)NC(=O)Nc2ccc(Cl)cc2)c1` are 8 µg/mL (≈ 23.5 µM) and 100%.
The corresponding values for `Cc1ccc(S(=O)(=O)NC(=O)Nc2c(F)cc(F)cc2F)cc1` are above 20 µg/mL and 27%.
Compound `O=C(Nc1ccc2c(c1)OCO2)NS(=O)(=O)c1ccc(Cl)cc1` yielded an IC50 with CCRF-CEM above 20 µg/mL. In addition, the inhibition in vivo at 300 mg/kg in test [1] worked out at 28%.
Turning to `Cc1ccc(S(=O)(=O)NC(=O)NCc2ccccc2)cc1`, the IC50 in the test on CCRF-CEM was above 20 µg/mL. At 300 mg/kg the inhibition in vivo in test [1] was 0%.
The corresponding values for `COc1ccc(S(=O)(=O)NC(=O)Nc2ccc(Cl)cc2)cc1OC` are above 20 µg/mL and 43%.
The corresponding values for `CCCCCCCCc1ccc(S(=O)(=O)NC(=O)Nc2ccc(Cl)cc2)cc1` are 9 µg/mL (≈ 21.3 µM) and 9%.
`O=C(Nc1ccc(Cl)cc1)NS(=O)(=O)c1ccc2c(c1)OCO2`: in the test on CCRF-CEM, the IC50 was determined as 9.1 µg/mL (≈ 25.7 µM). Moreover, at 300 mg/kg the inhibition in vivo in test [1] was 100%.
Turning to `CCCOc1cccc(NC(=O)NS(=O)(=O)c2ccc(C)cc2)c1`, the half-maximal inhibitory concentration (IC50) with CCRF-CEM is above 20 µg/mL. This compound also displayed an inhibition in vivo at 300 mg/kg in test [1] of 0%.
The corresponding values for `Cc1ccc(S(=O)(=O)NC(=O)Nc2cccc(Cl)c2)cc1` are above 20 µg/mL and 13%.
The corresponding values for `Cc1ccc(S(=O)(=O)NC(=O)Nc2cc(C)cc(C)c2)cc1` are above 20 µg/mL and 9%.
On to `Cc1ccc(S(=O)(=O)NC(=O)NC2CCC(C)CC2)cc1` (centres undefined), for which, in the test with CCRF-CEM, the IC50 was above 20 µg/mL. In test [1], this compound registered an inhibition in vivo at 300 mg/kg of 2%.
In the same order, the values of `O=C(Nc1ccc(Cl)c(Cl)c1)NS(=O)(=O)c1ccc2c(c1)CCC2` are 9.1 µg/mL (≈ 23.6 µM) and 97%.
The corresponding values for `Cc1ccc(S(=O)(=O)NC(=O)N(C)c2ccc(Cl)cc2)cc1` are above 20 µg/mL and 30%.
`Cc1ccc(S(=O)(=O)NC(=O)Nc2cccnc2)cc1` yielded an IC50 in the test with CCRF-CEM above 20 µg/mL. For the same compound, testing at 300 mg/kg in test [1] gave an inhibition in vivo of 1%.
The corresponding values for `Cc1ccc(S(=O)(=O)NC(=O)Nc2ccc(C#N)cc2)cc1` are above 20 µg/mL and 31%.
Take `COc1ccc(NC(=O)NS(=O)(=O)c2ccc(C)cc2)cc1Cl`: the IC50 in the test with CCRF-CEM is above 20 µg/mL. In test [1], this compound returned an inhibition in vivo at 300 mg/kg of 0%.
`O=C(Nc1ccc(Cl)cc1)NS(=O)(=O)c1ccc(Oc2ccccc2)cc1` yielded an IC50 in the test with CCRF-CEM of 19.7 µg/mL (≈ 48.9 µM). This compound also showed an inhibition in vivo at 300 mg/kg in test [1] of 32%.
The corresponding values for `N#Cc1cccc(S(=O)(=O)NC(=O)Nc2ccc(Cl)cc2)c1` are 13.1 µg/mL (≈ 39 µM) and 19%.
The compound `Cc1ccc(S(=O)(=O)NC(=O)Nc2ccc(Cl)cc2C(F)(F)F)cc1` displayed a concentration for half-maximal inhibition (IC50) in the test with CCRF-CEM above 20 µg/mL. Moreover, 300 mg/kg produced 24% inhibition in vivo in test [1].
In the same order, the values of `CCOc1cccc(NC(=O)NS(=O)(=O)c2ccc(C)cc2)c1` are above 20 µg/mL and 6%.
For the compound `Cc1ccc(S(=O)(=O)NC(=O)Nc2ccc(O)cc2)cc1`, the 50% inhibitory concentration (IC50) in the test with CCRF-CEM was above 20 µg/mL. 300 mg/kg produced 10% inhibition in vivo in test [1].
With `O=C(Nc1ccc(C(F)(F)F)cc1)NS(=O)(=O)c1ccc2c(c1)CCC2`, the IC50 in the test on CCRF-CEM is 12 µg/mL (≈ 31.2 µM). The compound further gave an inhibition in vivo at 300 mg/kg in test [1] of 71%.
Compound `Cc1ccc(S(=O)(=O)NC(=O)Nc2ccc(OCC(F)(F)F)cc2)cc1` came in with an IC50 with CCRF-CEM above 20 µg/mL. In test [1], this compound had an inhibition in vivo at 300 mg/kg of 30%.
Compound `CSc1ccc(NC(=O)NS(=O)(=O)c2ccc(C)cc2)cc1` displayed an IC50 in the test with CCRF-CEM above 20 µg/mL. For the same compound, in test [1], testing at 300 mg/kg gave an inhibition in vivo of 17%.
In the same order, the values of `Cc1ccc(S(=O)(=O)NC(=O)Nc2nc(Cl)cc(Cl)n2)cc1` are above 20 µg/mL and 0%.

The values are drawn from ChEMBL document CHEMBL1124898, “Novel agents effective against solid tumors: the diarylsulfonylureas. Synthesis, activities, and analysis of quantitative structure-activity relationships” (J Med Chem, 1990).
